Values quoted from earlier work in US6998494B2, “Preparation of trans-fused 3,3a,8,12b-tetrahydro-2h-dibenzo[3,4:6,7]cyclohepta[1,2-b]furan derivatives” (Janssen Pharmaceutica N.V., priority 2001, dated 2006).

Details: dose of 300 mg/kg

Q: For CNCC1CC2c3ccccc3Cc3ccccc3C2O1.O=C(O)C(=O)O (racemic) [(±)-3,3a,8,12b-tetrahydro-N-methyl-2H-dibenzo[3,4:6,7]-cyclohepta[1,2-b]furan-2-methanamine oxalic acid], which “activity as an antidepressant” value is on record?
A: inactive
